Measurements from PMC10093836, “Stabilization of the Dimeric State of SARS-CoV-2 Main Protease by GC376 and Nirmatrelvir” (International Journal of Molecular Sciences, 2023).

Key:
[1] = molecular target: SARS-CoV-2 Mpro (Nsp5, 3CLpro) (Severe acute respiratory syndrome coronavirus 2, UniProt P0DTD1); experiment: biochemical; type: binding; conditions: for Binding to Mpro (MST), in words: no binding curve produced
cells = test system: cells; parameters: method as in PMID 32841477; conditions: literature values; cited from earlier work
Mpro = conditions: read-out: IC50 for Mpro; literature data; cited from earlier work
SARS-CoV-2 protease = molecular target: SARS-CoV-2 protease; parameters: method as in PMID 34726479, PMID 35233052, PMID 34653812; conditions: literature; read-out: Inhibition constant (Ki); cited from earlier work

Question: For CC(C)c1nc(CN(C)C(=O)N[C@H](C(=O)N[C@@H](Cc2ccccc2)C[C@H](O)[C@H](Cc2ccccc2)NC(=O)OCc2cncs2)C(C)C)cs1 [RTV, ritonavir], which “Binding to Mpro (MST), in words” value [1] is on record?
Answer: The value was “do not bind Mpro effectively”.

Question: Which EC50 (cells) does the source give for CCCCCCNC(=O)n1cc(F)c(=O)[nH]c1=O [Carmofur] here?
Answer: Its EC50 is 24000 ± 3000 nM.

Question: For Cc1c(O)cccc1C(=O)N[C@@H](CSc1ccccc1)[C@H](O)CN1C[C@H]2CCCC[C@H]2C[C@H]1C(=O)NC(C)(C)C [Nelfinavir], which “Binding to Mpro (MST), in words” value [1] is on record?
Answer: Its value is “do not bind Mpro effectively”.

Question: For Cc1cccc(C)c1OCC(=O)N[C@@H](Cc1ccccc1)[C@@H](O)C[C@H](Cc1ccccc1)NC(=O)[C@H](C(C)C)N1CCCNC1=O [Lopinavir], which Kd [1] is on record?
Answer: The Kd was over 200000 nM.

Question: What about the “Binding to Mpro (MST), in words” value [1] of the same compound?
Answer: Its value is “do not bind Mpro effectively”.

Question: Which IC50 (Mpro) does the source give for CC(C)C[C@H](NC(=O)OCc1ccccc1)C(=O)N[C@@H](CC1CCNC1=O)C(O)S(=O)(=O)O (stereo partly shown) [GC376] here?
Answer: The IC50 was 190 ± 40 nM.

Question: For CC(C)(C)[C@H](NC(=O)C(F)(F)F)C(=O)N1C[C@H]2[C@@H]([C@H]1C(=O)N[C@H](C#N)C[C@@H]1CCNC1=O)C2(C)C [NMV, Nirmatrelvir], which Ki (SARS-CoV-2 protease) is on record?
Answer: Its Ki is 3 nM.
